In assay [1] the target is soluble human BACE1 catalytic domain (Homo sapiens (Human), UniProt P56817). As to the kind of experiment: BACE1 HTRF FRET Assay. Format: biochemical. The following applies: Ki calculated from IC50 using the Cheng-Prusoff equation; QSY7-APPswe-Eu substrate, pH 5.0; read-out: BACE-1 Ki. From the text: Na^+-Acetate pH 5.0; 1% Brij-35; Glycerol; Dimethyl Sulfoxide (DMSO); Recombinant human soluble BACE1 catalytic domain (>95% pure); APP Swedish mutant peptide substrate (QSY7-APP^swe-Eu): QSY7-EISEVNLDAEFC-Europium-amide.
A homogeneous time-resolved FRET assay can be used to determine IC50 values for inhibitors of the soluble human BACE1 catalytic domain. This assay monitors the increase of 620 nm fluorescence that resulted from BACE1 cleavage of an APPswedish APP^swe mutant peptide FRET substrate (QSY7-EISEVNLDAEFC-Europium-amide). This substrate contains an N-terminal QSY7 moiety that serves as a quencher of the C-terminal Europium fluorophore (620 nm Em). In the absence of enzyme activity, 620 nm fluorescence is low in the assay and increased linearly over 3 hours in the presence of uninhibited BACE1 enzyme. Inhibition of BACE1 cleavage of the QSY7-APP^swe-Eu substrate by inhibitors is manifested as a suppression of 620 nm fluorescence.
Varying concentrations of inhibitors at 3× the final desired concentration in a volume of 10 ul are preincubated with purified human BACE1 catalytic domain (3 nM in 10 μl) for 30 minutes at 30° C. in reaction buffer containing 20 mM Na-Acetate pH 5.0, 10% glycerol, 0.1% Brij-35 and 7.5% DSMO. Reactions are initiated by addition of 10 μl of 600 nM QSY7-APP^swe-Eu substrate (200 nM final) to give a final reaction volume of 30 μl in a 384 well Nunc HTRF plate. The reactions are incubated at 30° C. for 1.5 hours. The 620 nm fluorescence is then read on a Rubystar HTRF plate reader (BMG Labtechnologies) using a 50 millisecond delay followed by a 400 millisecond acquisition time window. Inhibitor IC50 values are derived from non-linear regression analysis of concentration response curves. Ki values are then calculated from IC50 values using the Cheng-Prusoff equation using a previously determined […] of 8 μM for the QSY7-APP^swe-Eu substrate at BACE1.

The target of assay [2] is purified human autoBACE-2 (Homo sapiens (Human), UniProt Q9Y5Z0). Description: BACE-2 Assay (BACE-HTRF assay). The assay is classed as biochemical. As to conditions: Ki calculated from IC50 using the Cheng-Prusoff equation; QSY7-EISEVNLDAEFC-Eu-amide substrate, pH 5.0. As for the experimental part: Inhibitor IC50s at purified human autoBACE-2 are determined in a time-resolved endpoint proteolysis assay that measures hydrolysis of the QSY7-[…]-Eu-amide FRET peptide substrate (BACE-HTRF assay). […] DMSO is present at 5% final concentration in the assay. Following laser excitation of sample wells at 320 nm, the fluorescence signal at 620 nm is collected for 400 ms following a 50 μs delay on a RUBYstar HTRF plate reader (BMG Labtechnologies). Raw RFU data is normalized to maximum (1.0 nM BACE/DMSO) and minimum (no enzyme/DMSO) RFU values. […] The Ki values are calculated from the IC50 using the Cheng-Prusoff equation.
Chain of purified human autoBACE-2 (Q9Y5Z0 63-473 limits assumed): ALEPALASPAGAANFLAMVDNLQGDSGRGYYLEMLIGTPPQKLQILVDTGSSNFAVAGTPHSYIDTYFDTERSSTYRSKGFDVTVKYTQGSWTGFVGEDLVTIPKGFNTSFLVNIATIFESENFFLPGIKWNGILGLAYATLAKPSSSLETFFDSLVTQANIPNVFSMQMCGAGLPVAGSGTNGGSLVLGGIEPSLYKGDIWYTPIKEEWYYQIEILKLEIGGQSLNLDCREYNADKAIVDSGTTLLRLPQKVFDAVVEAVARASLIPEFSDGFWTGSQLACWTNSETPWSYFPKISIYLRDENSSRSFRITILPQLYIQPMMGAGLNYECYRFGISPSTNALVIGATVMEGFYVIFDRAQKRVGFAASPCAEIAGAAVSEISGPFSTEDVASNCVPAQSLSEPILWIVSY

Chain of soluble human BACE1 catalytic domain (P56817 75-416): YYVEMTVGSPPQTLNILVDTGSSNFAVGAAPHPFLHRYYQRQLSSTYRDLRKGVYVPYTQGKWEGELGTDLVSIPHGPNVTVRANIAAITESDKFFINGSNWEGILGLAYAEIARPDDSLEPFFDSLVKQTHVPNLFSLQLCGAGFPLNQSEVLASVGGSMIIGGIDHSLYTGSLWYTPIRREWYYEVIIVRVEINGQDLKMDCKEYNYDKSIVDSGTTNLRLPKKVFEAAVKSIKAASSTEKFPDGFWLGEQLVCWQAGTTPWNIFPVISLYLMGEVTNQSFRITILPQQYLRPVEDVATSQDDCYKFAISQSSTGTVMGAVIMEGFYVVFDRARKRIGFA

A word on the Ki: it is the equilibrium dissociation constant of an inhibitor or competing ligand from its target. For the compound `Cc1ccc(C(=O)Nc2ccc3c(c2)[C@@]2(C)NC(=N)N(C)S(=O)(=O)[C@H]2CCC3)nc1` [Example 21, N-((4aS,11bR)-2-imino-3,11b-dimethyl-4,4-dioxido-1,2,3,4a,5,6,7,11b-octahydrobenzo[6,7]cyclohepta[1,2-e][1,2,4]thiadiazin-10-yl)-5-methylpicolinamide], the figures for the Ki in assay [1] and in assay [2] were 45 nM and 34 nM, respectively.

Regarding `CN1C(=N)N[C@]2(C)c3cc(NC(=O)c4ccc(OC(F)F)cn4)ccc3CCC[C@@H]2S1(=O)=O` [Example 22, 5-(difluoromethoxy)-N-((4aS,11bR)-2-imino-3,11b-dimethyl-4,4-dioxido-1,2,3,4a,5,6,7,11b-octahydrobenzo[6,7]cyclohepta[1,2-e][1,2,4]thiadiazin-10-yl)picolinamide], the results for the Ki in assay [1] and in assay [2] were 10 nM and 90 nM, respectively.

Consider `CN1C(=N)N[C@]2(C)c3cc(NC(=O)c4ccc(Cl)cn4)ccc3CCC[C@@H]2S1(=O)=O` [Example 23, 5-chloro-N-((4aS,11bR)-2-imino-3,11b-dimethyl-4,4-dioxido-1,2,3,4a,5,6,7,11b-octahydrobenzo[6,7]cyclohepta[1,2-e][1,2,4]thiadiazin-10-yl)picolinamide], for which the Ki in assay [1] and in assay [2] was 7 nM in each case.

As for `Cc1cnc(C(=O)Nc2ccc3c(c2)[C@@]2(C)NC(=N)N(C)S(=O)(=O)[C@H]2CCC3)cn1` [Example 24, N-((4aS,11bR)-2-imino-3,11b-dimethyl-4,4-dioxido-1,2,3,4a,5,6,7,11b-octahydrobenzo[6,7]cyclohepta[1,2-e][1,2,4]thiadiazin-10-yl)-5-methylpyrazine-2-carboxamide], the Ki was 168 nM in assay [1] and 251 nM in assay [2].

Turning to `CN1C(=N)N[C@]2(C)c3cc(NC(=O)c4ncc(Cl)cc4F)ccc3CCC[C@@H]2S1(=O)=O` [Example 25, 5-chloro-3-fluoro-N-((4aS,11bR)-2-imino-3,11b-dimethyl-4,4-dioxido-1,2,3,4a,5,6,7,11b-octahydrobenzo[6,7]cyclohepta[1,2-e][1,2,4]thiadiazin-10-yl)picolinamide], the Ki in assay [1] was 7 nM; in assay [2] it was 5 nM.

`CN1C(=N)N[C@]2(C)c3cc(NC(=O)c4ncc(F)cc4F)ccc3CCC[C@@H]2S1(=O)=O` [Example 26, 3,5-difluoro-N-((4aS,11bR)-2-imino-3,11b-dimethyl-4,4-dioxido-1,2,3,4a,5,6,7,11b-octahydrobenzo[6,7]cyclohepta[1,2-e][1,2,4]thiadiazin-10-yl)picolinamide]: the Ki was 18 nM in assay [1] and 10 nM in assay [2].

Regarding `COc1cc(Br)cnc1C(=O)Nc1ccc2c(c1)[C@@]1(C)NC(=N)N(C)S(=O)(=O)[C@H]1CCC2` [Example 27, 5-bromo-N-((4aS,11bR)-2-imino-3,11b-dimethyl-4,4-dioxido-1,2,3,4a,5,6,7,11b-octahydrobenzo[6,7]cyclohepta[1,2-e][1,2,4]thiadiazin-10-yl)-3-methoxypicolinamide], the results for the Ki in assay [1] and in assay [2] were 18 nM and 10 nM, respectively.

As to `CN1C(=N)N[C@]2(C)c3cc(NC(=O)c4ccc(F)cn4)ccc3CCC[C@@H]2S1(=O)=O` [Example 28, 5-fluoro-N-((4aS,11bR)-2-imino-3,11b-dimethyl-4,4-dioxido-1,2,3,4a,5,6,7,11b-octahydrobenzo[6,7]cyclohepta[1,2-e][1,2,4]thiadiazin-10-yl)picolinamide], the Ki in assay [1] was 18 nM; in assay [2], 7 nM.

Take `CN1C(=N)N[C@]2(C)c3cc(NC(=O)c4ccc(OC(F)(F)F)cn4)ccc3CCC[C@@H]2S1(=O)=O` [Example 29, N-((4aS,11bR)-2-imino-3,11b-dimethyl-4,4-dioxido-1,2,3,4a,5,6,7,11b-octahydrobenzo[6,7]cyclohepta[1,2-e][1,2,4]thiadiazin-10-yl)-5-(trifluoromethoxy)picolinamide]: the Ki in assay [1] is 14 nM; in assay [2], 144 nM.

On to `CN1C(=N)N[C@]2(C)c3cc(NC(=O)c4ncc(C(F)(F)F)cc4Cl)ccc3CCC[C@@H]2S1(=O)=O` [Example 30, 3-chloro-N-((4aS,11bR)-2-imino-3,11b-dimethyl-4,4-dioxido-1,2,3,4a,5,6,7,11b-octahydrobenzo[6,7]cyclohepta[1,2-e][1,2,4]thiadiazin-10-yl)-5-(trifluoromethyl)picolinamide], for which the Ki in assay [1] was 10 nM; in assay [2] it was 82 nM.

Consider `Cc1cc(F)cnc1C(=O)Nc1ccc2c(c1)[C@@]1(C)NC(=N)N(C)S(=O)(=O)[C@H]1CCC2` [Example 31, 5-fluoro-N-((4aS,11bR)-2-imino-3,11b-dimethyl-4,4-dioxido-1,2,3,4a,5,6,7,11b-octahydrobenzo[6,7]cyclohepta[1,2-e][1,2,4]thiadiazin-10-yl)-3-methylpicolinamide], for which the Ki is 19 nM in assay [1] and 10 nM in assay [2].

Regarding `COc1cnc(C(=O)Nc2ccc3c(c2)[C@@]2(C)NC(=N)N(C)S(=O)(=O)[C@H]2CCC3)c(C)c1` [Example 32, N-((4aS,11bR)-2-imino-3,11b-dimethyl-4,4-dioxido-1,2,3,4a,5,6,7,11b-octahydrobenzo[6,7]cyclohepta[1,2-e][1,2,4]thiadiazin-10-yl)-5-methoxy-3-methylpicolinamide], the Ki is 27 nM in assay [1] and 34 nM in assay [2].

For the compound `COc1cnc(C(=O)Nc2ccc3c(c2)[C@@]2(C)NC(=N)N(C)S(=O)(=O)[C@H]2CCC3)c(C)n1` [Example 33], the Ki in assay [1] is 48 nM; in assay [2], 86 nM.

For `COc1cnc(C(=O)Nc2ccc3c(c2)[C@@]2(C)NC(=N)N(C)S(=O)(=O)[C@H]2CCC3)cn1` [Example 34], the Ki in assay [1] is 17 nM; in assay [2] it was 52 nM.

On to `Cc1cc(C#N)cnc1C(=O)Nc1ccc2c(c1)[C@@]1(C)NC(=N)N(C)S(=O)(=O)[C@H]1CCC2` [Example 35, 5-cyano-N-((4aS,11bR)-2-imino-3,11b-dimethyl-4,4-dioxido-1,2,3,4a,5,6,7,11b-octahydrobenzo[6,7]cyclohepta[1,2-e][1,2,4]thiadiazin-10-yl)-3-methylpicolinamide], for which the results for the inhibition constant Ki in assay [1] and in assay [2] were 19 nM and 10 nM, respectively.

Regarding `CN1C(=N)N[C@]2(C)c3cc(NC(=O)c4ccc(C#N)cn4)ccc3CCC[C@@H]2S1(=O)=O` [Example 36], the Ki in assay [1] was 4 nM; in assay [2], 25 nM.

Regarding `CN1C(=N)N[C@]2(C)c3cc(NC(=O)c4ccc(F)cn4)ccc3CCC[C@H]2S1(=O)=O` [Example 37, 5-fluoro-N-((4aR,11bR)-2-imino-3,11b-dimethyl-4,4-dioxido-1,2,3,4a,5,6,7,11b-octahydrobenzo[6,7]cyclohepta[1,2-e][1,2,4]thiadiazin-10-yl)picolinamide], the Ki in assay [1] was 159 nM; in assay [2], 96 nM.

Turning to `CN1C(=N)N[C@]2(C)c3cc(NC(=O)c4ccc(OC(F)F)cn4)ccc3CCC[C@H]2S1(=O)=O` [Example 38, 5-(difluoromethoxy)-N-((4aR,11bR)-2-imino-3,11b-dimethyl-4,4-dioxido-1,2,3,4a,5,6,7,11b-octahydrobenzo[6,7]cyclohepta[1,2-e][1,2,4]thiadiazin-10-yl)picolinamide], the Ki in assay [1] was 80 nM; in assay [2] it was 857 nM.

Consider `CN1C(=N)N[C@]2(C)c3cc(NC(=O)c4ccc(C#N)cn4)ccc3CCC[C@H]2S1(=O)=O` [Example 39], for which the values for the Ki in assay [1] and in assay [2] were 60 nM and 315 nM, respectively.

Take `Cc1cnc(C(=O)Nc2ccc3c(c2)[C@@]2(C)NC(=N)N(C)S(=O)(=O)[C@@H]2CCC3)cn1` [Example 40, N-((4aR,11bR)-2-imino-3,11b-dimethyl-4,4-dioxido-1,2,3,4a,5,6,7,11b-octahydrobenzo[6,7]cyclohepta[1,2-e][1,2,4]thiadiazin-10-yl)-5-methylpyrazine-2-carboxamide]: the results for the Ki in assay [1] and in assay [2] were 1390 nM and 2710 nM, respectively.

In the case of `COc1cnc2c(Nc3ccc4c(c3)[C@@]3(C)NC(=N)N(C)S(=O)(=O)[C@H]3CCO4)nccc2n1` [Example 41, (4aS,11bR)-2-imino-10-((2-methoxypyrido[3,4-b]pyrazin-5-yl)amino)-3,11b-dimethyl-2,3,4a,5,6,11b-hexahydro-1H-benzo[2,3]oxepino[4,5-e][1,2,4]-thiadiazine 4,4-dioxide], the Ki in assay [1] was 60 nM; in assay [2], 135 nM.

Source of the values: patent publication US10238743B2 (Merck Sharp & Dohme Corp., priority 2014, dated 2019).
